The source made the active and inactive calls. No cut-off for these calls is given here.
What was measured:
[1] = test system: HCC827; assay: Antitumor activity against human HCC827 cells xenografted in BALB/c mouse assessed as reduction tumor volume at 20 mg/kg, po qd; type: functional, organism-based; parameters: dose 20 mg/kg
[2] = Inhibition of human recombinant CaMK2 by radiometric kinase assay
[3] = test system: HCT-116; assay: Cytotoxicity against human HCT116 cells incubated for 72 hrs by MTT assay; type: functional, cell-based; conditions: HCT-116, 72 h
[4] = biological target: Vascular endothelial growth factor receptor 2 (Homo sapiens, UniProt P35968); assay: Inhibition of human recombinant VEGFR2 by radiometric kinase assay
[5] = biological target: Tyrosine-protein kinase JAK3 (Homo sapiens, UniProt P52333); assay: Inhibition of human recombinant JAK3 by radiometric kinase assay
[6] = test system: NCI-H1975; assay: Cytotoxicity against human NCI-H1975 cells incubated for 72 hrs by MTT assay; type: functional, cell-based; conditions: NCI-H1975, 72 h
[7] = biological target: Mitogen-activated protein kinase 14 (Homo sapiens, UniProt Q16539); assay: Inhibition of human recombinant p38alpha by radiometric kinase assay
[8] = test system: Mus musculus; assay: Inhibition of EGFR phosphorylation in human HCC827 cells xenografted in BALB/c mouse at 1 mg/kg/day, po for 3 days by immunohistochemistry; type: functional, organism-based
[9] = test system: Calu-3; assay: Cytotoxicity against human Calu3 cells incubated for 72 hrs by MTT assay; type: functional, cell-based; conditions: Calu-3, 72 h
[10] = biological target: Hepatocyte growth factor receptor (Homo sapiens, UniProt P08581); assay: Inhibition of human recombinant MET by radiometric kinase assay
[11] = test system: FaDu; assay: Cytotoxicity against human FADU cells incubated for 72 hrs by MTT assay; type: functional, cell-based
[12] = Clearance in Sprague-Dawley rat at 20 mg/kg, po; type: ADME, organism-based; parameters: dose 20 mg/kg, route oral; conditions: in vivo
[13] = test system: HCC827; assay: Antitumor activity against human HCC827 cells xenografted in BALB/c mouse assessed as reduction tumor volume at 5 mg/kg, po qd; type: functional, organism-based; parameters: dose 5 mg/kg
[14] = biological target: MAP kinase-activated protein kinase 5 (Homo sapiens, UniProt Q8IW41); assay: Inhibition of human recombinant MK5 by radiometric kinase assay
[15] = biological target: Protein kinase C alpha type (Homo sapiens, UniProt P17252); assay: Inhibition of human recombinant PKCalpha by radiometric kinase assay
[16] = biological target: ALK tyrosine kinase receptor (Homo sapiens, UniProt Q9UM73); assay: Inhibition of human recombinant ALK by radiometric kinase assay
[17] = biological target: Interleukin-1 receptor-associated kinase 4 (Homo sapiens, UniProt Q9NWZ3); assay: Inhibition of human recombinant IRAK4 by radiometric kinase assay
[18] = biological target: Insulin-like growth factor 1 receptor (Homo sapiens, UniProt P08069); assay: Inhibition of human recombinant IGF1R by radiometric kinase assay
[19] = test system: HepG2; assay: Cytotoxicity against human HepG2 cells incubated for 72 hrs by MTT assay; type: functional, cell-based; conditions: HepG2, 72 h
[20] = test system: A-431; assay: Cytotoxicity against human A431 cells incubated for 72 hrs by MTT assay; type: functional, cell-based; conditions: A-431, 72 h
[21] = Binding affinity to […] EGFR L747-S752del, Sins mutant by KINOMEscan kinase binding assay
[22] = Inhibition of human recombinant S6K by radiometric kinase assay
[23] = Cytotoxicity against human HCC827 cells incubated for 72 hrs by MTT assay; type: functional, cell-based; conditions: HCC827, 72 h
[24] = biological target: Tyrosine-protein kinase JAK1 (Homo sapiens, UniProt P23458); assay: Inhibition of human recombinant JAK1 by radiometric kinase assay
[25] = Cmax in Sprague-Dawley rat at 20 mg/kg, po; type: ADME, organism-based; parameters: dose 20 mg/kg, route oral; conditions: in vivo
[26] = biological target: Receptor tyrosine-protein kinase erbB-2 (Homo sapiens, UniProt P04626); assay: Inhibition of human recombinant ERBB2 by radiometric kinase assay
[27] = biological target: Glycogen synthase kinase-3 beta (Homo sapiens, UniProt P49841); assay: Inhibition of human recombinant GSK3beta by radiometric kinase assay
[28] = biological target: Serine/threonine-protein kinase WNK1 (Homo sapiens, UniProt Q9H4A3); assay: Inhibition of human recombinant WNK1 by radiometric kinase assay
[29] = biological target: Mitogen-activated protein kinase 1 (Homo sapiens, UniProt P28482); assay: Inhibition of human recombinant ERK2 by radiometric kinase assay
[30] = test system: NCI-H1975; assay: Antitumor activity against human NCI-H1975 cells xenografted in BALB/c mouse assessed as inhibition of tumor growth administered orally once daily; type: functional, cell-based
[31] = biological target: Protein kinase C theta type (Homo sapiens, UniProt Q04759); assay: Inhibition of human recombinant PKCtheta by radiometric kinase assay
[32] = test system: PC-9; assay: Cytotoxicity against human PC9 cells incubated for 72 hrs by MTT assay; type: functional, cell-based; conditions: PC-9, 72 h
[33] = Half life in Sprague-Dawley rat at 20 mg/kg, po; type: ADME, organism-based; parameters: dose 20 mg/kg, route oral; conditions: in vivo
[34] = biological target: Serine/threonine-protein kinase PLK1 (Homo sapiens, UniProt P53350); assay: Inhibition of human recombinant PLK1 by radiometric kinase assay
[35] = biological target: Proto-oncogene tyrosine-protein kinase Src (Homo sapiens, UniProt P12931); assay: Inhibition of human recombinant SRC by radiometric kinase assay
[36] = test system: Mus musculus; assay: Inhibition of EGFR phosphorylation in human NCI-H1975 cells xenografted in BALB/c mouse at 50 mg/kg/day, po for 10 days by immunohistochemistry; type: functional, organism-based
[37] = test system: Mus musculus; assay: Toxicity in human NCI-H1975 cells xenografted BALB/c mouse assessed as body weight loss at 50 mg/kg, po qd; type: organism-based; parameters: dose 50 mg/kg, route oral; conditions: in vivo
[38] = AUC (0 to 24 hrs) in Sprague-Dawley rat at 20 mg/kg, po; type: ADME, organism-based; parameters: time < 24 hr, dose 20 mg/kg, route oral; conditions: plasma
[39] = test system: HCC827; assay: Antitumor activity against human HCC827 cells xenografted in BALB/c mouse assessed as reduction tumor volume at 1 mg/kg, po qd; type: functional, organism-based; parameters: dose 1 mg/kg
[40] = biological target: Rho-associated protein kinase 2 (Homo sapiens, UniProt O75116); assay: Inhibition of human recombinant ROCK2 by radiometric kinase assay
[41] = biological target: Receptor tyrosine-protein kinase erbB-4 (Homo sapiens, UniProt Q15303); assay: Inhibition of human recombinant ERBB4 by radiometric kinase assay
[42] = biological target: Cyclin-dependent kinase 2 (Homo sapiens, UniProt P24941); assay: Inhibition of human recombinant CDK2 by radiometric kinase assay
[43] = biological target: Mitogen-activated protein kinase 9 (Homo sapiens, UniProt P45984); assay: Inhibition of human recombinant JNK2 by radiometric kinase assay
[44] = Tmax in Sprague-Dawley rat at 20 mg/kg, po; type: ADME, organism-based; parameters: dose 20 mg/kg, route oral; conditions: in vivo
[45] = test system: NCI-H1975; assay: Antitumor activity against human NCI-H1975 cells xenografted in BALB/c mouse assessed as inhibition of tumor growth at 50 mg/kg, po qd; type: functional; conditions: read-out: TGI
[46] = Binding affinity to […] EGFR […] mutant by KINOMEscan kinase binding assay
[47] = biological target: Macrophage-stimulating protein receptor (Homo sapiens, UniProt Q04912); assay: Inhibition of human recombinant MST1R by radiometric kinase assay
[48] = test system: NCI-H1975; assay: Antitumor activity against human NCI-H1975 cells xenografted in BALB/c mouse assessed as inhibition of tumor growth at 25 mg/kg, po qd; type: functional; conditions: read-out: TGI
[49] = test system: MDA-MB-231; assay: Cytotoxicity against human MDA-MB-231 cells incubated for 72 hrs by MTT assay; type: functional, cell-based; conditions: MDA-MB-231, 72 h

Sequence of Tyrosine-protein kinase JAK1 (P23458 whole entry): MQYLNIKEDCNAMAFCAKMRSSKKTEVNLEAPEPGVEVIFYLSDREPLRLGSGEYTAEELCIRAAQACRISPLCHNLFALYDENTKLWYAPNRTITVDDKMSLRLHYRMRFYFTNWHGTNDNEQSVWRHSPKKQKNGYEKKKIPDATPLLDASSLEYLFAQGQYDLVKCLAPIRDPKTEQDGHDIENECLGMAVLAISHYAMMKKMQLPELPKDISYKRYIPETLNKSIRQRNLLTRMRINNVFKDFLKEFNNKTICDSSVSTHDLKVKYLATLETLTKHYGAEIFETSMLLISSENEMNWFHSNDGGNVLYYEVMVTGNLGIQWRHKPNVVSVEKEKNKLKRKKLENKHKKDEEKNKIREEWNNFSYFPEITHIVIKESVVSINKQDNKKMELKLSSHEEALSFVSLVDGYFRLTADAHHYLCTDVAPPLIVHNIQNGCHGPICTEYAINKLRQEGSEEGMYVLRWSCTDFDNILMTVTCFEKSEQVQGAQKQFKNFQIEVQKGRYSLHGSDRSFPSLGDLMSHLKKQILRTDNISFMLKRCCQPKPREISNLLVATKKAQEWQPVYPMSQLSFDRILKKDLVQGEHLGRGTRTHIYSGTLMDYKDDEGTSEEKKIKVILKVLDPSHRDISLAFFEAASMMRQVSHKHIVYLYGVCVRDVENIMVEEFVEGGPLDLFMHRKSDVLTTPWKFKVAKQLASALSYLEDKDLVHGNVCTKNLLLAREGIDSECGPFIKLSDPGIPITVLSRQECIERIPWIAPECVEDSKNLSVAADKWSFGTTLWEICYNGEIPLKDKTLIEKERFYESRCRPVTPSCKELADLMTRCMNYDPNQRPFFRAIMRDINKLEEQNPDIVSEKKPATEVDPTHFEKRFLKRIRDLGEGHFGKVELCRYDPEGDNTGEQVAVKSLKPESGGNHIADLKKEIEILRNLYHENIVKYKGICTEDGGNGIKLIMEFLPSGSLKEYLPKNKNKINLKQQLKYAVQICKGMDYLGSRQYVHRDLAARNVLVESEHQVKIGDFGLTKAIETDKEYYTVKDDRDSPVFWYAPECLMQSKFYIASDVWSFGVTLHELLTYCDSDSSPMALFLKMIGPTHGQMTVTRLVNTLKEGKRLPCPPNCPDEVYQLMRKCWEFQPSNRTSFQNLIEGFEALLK
Sequence of Glycogen synthase kinase-3 beta (P49841 whole entry): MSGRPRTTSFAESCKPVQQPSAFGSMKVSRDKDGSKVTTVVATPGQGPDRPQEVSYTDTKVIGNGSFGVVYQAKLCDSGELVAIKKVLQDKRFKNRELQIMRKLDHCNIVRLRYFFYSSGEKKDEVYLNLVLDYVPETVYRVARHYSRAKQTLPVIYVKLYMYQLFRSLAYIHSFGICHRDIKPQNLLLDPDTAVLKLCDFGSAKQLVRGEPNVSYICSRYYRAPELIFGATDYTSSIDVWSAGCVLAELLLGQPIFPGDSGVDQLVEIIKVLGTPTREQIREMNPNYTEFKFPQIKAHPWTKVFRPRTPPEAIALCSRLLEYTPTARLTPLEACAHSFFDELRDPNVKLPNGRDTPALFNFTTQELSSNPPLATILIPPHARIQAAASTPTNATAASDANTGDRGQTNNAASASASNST
Sequence of Serine/threonine-protein kinase PLK1 (P53350 whole entry): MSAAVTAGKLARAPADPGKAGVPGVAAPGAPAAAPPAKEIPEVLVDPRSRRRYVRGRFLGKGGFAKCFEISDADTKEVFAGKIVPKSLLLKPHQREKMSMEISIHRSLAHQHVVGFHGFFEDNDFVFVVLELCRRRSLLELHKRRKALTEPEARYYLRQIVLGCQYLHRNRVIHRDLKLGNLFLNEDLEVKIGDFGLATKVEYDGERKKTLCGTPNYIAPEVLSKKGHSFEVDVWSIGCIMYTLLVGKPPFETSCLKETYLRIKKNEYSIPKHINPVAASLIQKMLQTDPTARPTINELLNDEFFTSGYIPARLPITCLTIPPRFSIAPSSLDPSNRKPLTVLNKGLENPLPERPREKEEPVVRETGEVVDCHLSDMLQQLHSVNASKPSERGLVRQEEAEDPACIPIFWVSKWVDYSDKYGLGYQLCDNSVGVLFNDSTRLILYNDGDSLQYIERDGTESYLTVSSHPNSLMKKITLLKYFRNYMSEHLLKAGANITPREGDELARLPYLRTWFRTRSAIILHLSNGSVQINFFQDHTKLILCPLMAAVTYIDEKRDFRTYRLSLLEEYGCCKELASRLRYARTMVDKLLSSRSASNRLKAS
Sequence of Receptor tyrosine-protein kinase erbB-4 (Q15303 whole entry): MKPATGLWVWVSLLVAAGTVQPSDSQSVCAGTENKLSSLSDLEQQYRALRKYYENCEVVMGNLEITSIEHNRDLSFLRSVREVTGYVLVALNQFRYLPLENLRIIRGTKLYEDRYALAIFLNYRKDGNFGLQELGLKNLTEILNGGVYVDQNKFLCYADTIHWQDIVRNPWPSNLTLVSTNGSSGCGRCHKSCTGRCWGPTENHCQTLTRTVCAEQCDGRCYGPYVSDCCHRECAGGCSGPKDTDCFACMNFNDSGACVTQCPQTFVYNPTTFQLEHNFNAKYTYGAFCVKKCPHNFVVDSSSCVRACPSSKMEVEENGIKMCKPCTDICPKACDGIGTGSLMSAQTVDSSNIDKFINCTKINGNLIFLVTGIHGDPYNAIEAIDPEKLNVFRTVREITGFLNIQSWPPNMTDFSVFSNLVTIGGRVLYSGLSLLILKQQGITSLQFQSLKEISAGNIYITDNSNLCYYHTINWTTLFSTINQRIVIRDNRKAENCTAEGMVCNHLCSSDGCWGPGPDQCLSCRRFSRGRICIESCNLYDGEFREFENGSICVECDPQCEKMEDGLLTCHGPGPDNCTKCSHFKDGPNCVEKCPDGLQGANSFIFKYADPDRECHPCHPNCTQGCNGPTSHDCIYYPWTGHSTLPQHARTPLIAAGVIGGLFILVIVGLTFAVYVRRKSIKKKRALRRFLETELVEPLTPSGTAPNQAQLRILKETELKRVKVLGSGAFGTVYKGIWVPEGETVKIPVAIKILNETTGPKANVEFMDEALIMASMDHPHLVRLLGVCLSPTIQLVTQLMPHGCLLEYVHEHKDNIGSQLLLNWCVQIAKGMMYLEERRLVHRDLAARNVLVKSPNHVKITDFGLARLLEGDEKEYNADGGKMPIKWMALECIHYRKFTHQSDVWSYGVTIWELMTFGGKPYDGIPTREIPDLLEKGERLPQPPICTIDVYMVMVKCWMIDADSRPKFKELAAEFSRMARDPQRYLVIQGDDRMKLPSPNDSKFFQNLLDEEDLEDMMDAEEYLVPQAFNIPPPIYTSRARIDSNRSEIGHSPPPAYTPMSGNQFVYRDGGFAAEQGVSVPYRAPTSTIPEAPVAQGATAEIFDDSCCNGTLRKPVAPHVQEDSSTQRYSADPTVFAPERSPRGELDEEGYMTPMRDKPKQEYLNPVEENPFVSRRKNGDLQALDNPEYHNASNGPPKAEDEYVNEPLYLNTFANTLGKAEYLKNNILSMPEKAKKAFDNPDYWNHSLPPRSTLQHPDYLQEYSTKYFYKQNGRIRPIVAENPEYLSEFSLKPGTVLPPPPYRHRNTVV
Sequence of Tyrosine-protein kinase JAK3 (P52333 whole entry): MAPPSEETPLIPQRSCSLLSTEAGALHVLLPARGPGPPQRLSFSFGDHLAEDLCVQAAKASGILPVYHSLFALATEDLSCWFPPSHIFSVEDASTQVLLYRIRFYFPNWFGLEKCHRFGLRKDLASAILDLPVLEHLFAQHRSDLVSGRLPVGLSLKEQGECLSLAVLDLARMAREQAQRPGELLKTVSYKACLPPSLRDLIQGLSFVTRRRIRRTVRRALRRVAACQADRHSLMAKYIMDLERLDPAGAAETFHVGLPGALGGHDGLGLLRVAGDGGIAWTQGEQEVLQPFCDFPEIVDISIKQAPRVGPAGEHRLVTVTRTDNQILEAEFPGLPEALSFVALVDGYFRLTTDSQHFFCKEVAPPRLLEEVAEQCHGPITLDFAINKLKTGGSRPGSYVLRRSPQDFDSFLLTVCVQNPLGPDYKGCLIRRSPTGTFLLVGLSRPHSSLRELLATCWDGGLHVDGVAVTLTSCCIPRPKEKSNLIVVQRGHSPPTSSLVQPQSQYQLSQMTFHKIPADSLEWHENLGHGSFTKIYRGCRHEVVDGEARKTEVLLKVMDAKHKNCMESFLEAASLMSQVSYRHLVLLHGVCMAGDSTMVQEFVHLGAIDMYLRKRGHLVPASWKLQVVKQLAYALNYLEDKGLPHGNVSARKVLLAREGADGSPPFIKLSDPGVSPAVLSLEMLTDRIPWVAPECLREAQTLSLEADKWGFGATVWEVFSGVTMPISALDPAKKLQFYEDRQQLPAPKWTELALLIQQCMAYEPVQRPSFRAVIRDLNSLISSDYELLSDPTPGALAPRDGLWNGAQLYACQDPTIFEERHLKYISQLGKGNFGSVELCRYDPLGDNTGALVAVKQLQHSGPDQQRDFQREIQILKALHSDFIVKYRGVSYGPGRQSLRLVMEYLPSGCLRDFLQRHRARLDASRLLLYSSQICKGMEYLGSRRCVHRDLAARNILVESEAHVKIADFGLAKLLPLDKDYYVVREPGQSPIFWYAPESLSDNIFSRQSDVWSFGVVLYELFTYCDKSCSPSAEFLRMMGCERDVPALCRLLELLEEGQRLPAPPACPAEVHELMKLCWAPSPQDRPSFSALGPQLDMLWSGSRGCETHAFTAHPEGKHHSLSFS
Sequence of MAP kinase-activated protein kinase 5 (Q8IW41 whole entry): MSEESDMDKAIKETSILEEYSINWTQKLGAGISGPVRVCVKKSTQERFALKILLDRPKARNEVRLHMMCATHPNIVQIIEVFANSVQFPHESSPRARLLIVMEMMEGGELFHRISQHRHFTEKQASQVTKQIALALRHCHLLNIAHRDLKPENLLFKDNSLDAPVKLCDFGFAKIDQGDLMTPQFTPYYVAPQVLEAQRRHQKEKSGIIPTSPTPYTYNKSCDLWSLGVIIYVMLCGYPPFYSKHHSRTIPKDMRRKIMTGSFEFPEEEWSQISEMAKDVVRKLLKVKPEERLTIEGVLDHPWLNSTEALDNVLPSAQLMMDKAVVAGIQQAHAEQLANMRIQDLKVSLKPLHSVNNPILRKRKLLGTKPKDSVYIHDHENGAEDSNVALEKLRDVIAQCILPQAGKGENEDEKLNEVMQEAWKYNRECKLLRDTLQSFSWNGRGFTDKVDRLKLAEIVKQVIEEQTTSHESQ

IC50 [2]: > 10 µM | IC50 [4]: 0.02 µM | IC50 [5]: 2.6 µM | IC50 [7]: 0.23 µM | IC50 [10]: 6.4 µM | CL/F [12]: 162 mL/min/kg | IC50 [14]: > 10 µM | IC50 [15]: 6.7 µM | IC50 [16]: 2.3 µM | IC50 [17]: > 10 µM | IC50 [18]: > 10 µM | Kd [21]: 0.0005 µM | IC50 [22]: 9.4 µM | IC50 [24]: 3.3 µM | Cmax [25]: 230 ng/mL | IC50 [26]: 0.06 µM | IC50 [27]: > 10 µM | IC50 [28]: > 10 µM | IC50 [29]: > 10 µM | IC50 [31]: 3.6 µM | half-life [33]: 4.86 h | IC50 [34]: > 10 µM | IC50 [35]: 0.29 µM | AUC(0-t) at 24 h [38]: 2140 ng·h/mL | IC50 [40]: > 10 µM | IC50 [41]: 0.03 µM | IC50 [42]: > 10 µM | IC50 [43]: 1.5 µM | Tmax [44]: 1 h | Kd [46]: 0.0005 µM | IC50 [47]: > 10 µM
SMILES: CN1CCN(c2ccc(Nc3ncc4nc(Nc5ccccc5)n(C5CCCC5)c4n3)cc2)CC1
TGI [1]: Active | IC50 [3]: 3 µM | IC50 [6]: 0.36 µM | inhibition [8]: Active | IC50 [9]: 0.12 µM | IC50 [11]: 0.015 µM | TGI [13]: Active | IC50 [19]: > 5 µM | IC50 [20]: 0.12 µM | IC50 [23]: < 10 pM | TGI [30]: Dose-dependent effect | IC50 [32]: 0.00022 µM | inhibition [36]: Active | Activity [37]: 4.4% | TGI [39]: Active | inhibition in vivo at 50 mg/kg [45]: 62% | inhibition in vivo at 25 mg/kg [48]: 35% | IC50 [49]: 5 µM
